{
  "source": "patent US11442059B2",
  "about": "“Method for treating a chronic itch condition by administering small molecule MrgprX4 antagonists” (The Johns Hopkins University, priority 2017, dated 2022)",
  "key": {"[1]": {"test_system": "129S1/SvImJ mice", "experiment": "SJS/TEN mouse model (daily oral gavage of causative drug)", "assay_type": "in vivo", "details": "for TUNEL-positive dead epithelial cells in paw: LTG oral daily", "description": "Eight-to-ten week old male mice were orally gavaged with either causative drugs (LTG, allopurinol, oxcarbazepine) suspended in saline or saline once daily. The dosage was based on milligrams per kilogram of animal's body weight as indicated (for example, LTG 50 mg kg^−1 body weight). Skin, eyes, and mucosa, survival, body weight, physical and gross appearances (particularly on the eyes, mucosa and skins) were monitored every day.\nThe animals were deeply anesthetized with pentobarbital and transcardially perfused with 20 ml 0.1 M cold PBS (pH 7.4) followed with 25 ml of cold 4% paraformaldehyde (PFA). Paw skin, eyelid, spleen, lymph nodes were dissected out. postfixed in 4% PFA for more than two hours, and cryoprotected in a 20% followed by 30% sucrose solution for 24 hours each at 4° C. Tissue samples were embedded in the optimal cutting temperature (OCT) and frozen before being serially cut into 20 μm sections and placed onto slides. Hematoxylin and eosin (H&E) staining was performed using standard procedures according to the manufacturer's instruction VITROVIEW™ H&E Stain Kit). To quantify amount of apoptotic cells, terminal deoxynucleotidyl transferase dUTP nick end labeling (TUNEL) assay, a method for detecting DNA fragmentation that results from apoptotic cells by labeling the terminal end of nucleic acids, was performed by following the protocol of Apo-BrdU DNA Fragmentation Assay Kit (Biovision). To estimate the total cell number in tissue, all nuclei were stained with propidium iodide. Digital photographs were captured under confocal fluorescent microscopy at x200 magnification (Zeiss LSM 700). The number of TUNEL-positive nuclei were counted and reported as a percentage over the number of total nuclei observed in the skin's epidermis layer."}, "[2]": {"test_system": "CD11c+MHC-IIhigh cells", "experiment": "Calcium imaging of sorted mouse splenocytes", "assay_type": "cell-based", "details": "WT CD11c+MHC-IIhigh splenocytes", "description": "In initial experiments, HEK293 cells were plated on 100 μg/ml poly-D-lysine coated glass cover slips, and transiently transfected with vector containing Mrgprs gene, after 24-48 hours of culture, cells were loaded with Fura 2-acetomethoxy ester calcium indicator (0.5 μM, Molecular Probes) along with pluronic F-127 dispersing agent (0.1%, Molecular Probes) for 30 minutes in the dark at 37° C., then washed with calcium imaging buffer (CIB; NaCl 125 mM, KCl 3 mM, CaCl2 2.5 mM, MgCl2 0.6 mM, HEPES 10 mM, glucose 20 mM, NaHCO3 1.2 mM, sucrose 20 mM, brought to pH 7.4 with NaOH). Drugs were added to Fura 2-loaded cells and intracellular free calcium was measured using 340 nm and 380 nm excitation wavelengths with emission measured at 520 nm with a microscope based imaging system (Nikon Eclipse TE200). Changes in emission fluorescence ratios at 340/380 nm excitation were continuously monitored at 1 second intervals. Later, experiments were performed using Mrgpra1-GFP, Mrgprc11-GFP and MRGPRX4-GFP stable cell lines to confirm the findings obtained from the transiently expressing cells.\nTo sort different cell types of splenocytes based on CD11c and MHC-II expression, single cell suspension of mouse splenocytes was prepared as above described. Then. […]"}, "[3]": {"test_system": "Mrgpra1 knockout mice", "experiment": "Dendritic cell adoptive transfer into Mrgpra1 KO mice with daily LTG", "assay_type": "in vivo, mouse", "details": "Mrgpra1 KO animals who received WT dendritic cells; 7-10 days of LTG 50 mg kg−1", "description": "Spleens from naïve 129S1 WT mice or Mrgpra1−/− mice were aseptically removed and DCs were isolated using mouse Pan Dendritic Cell isolation kit (Miltenyi Biotec) according to the manufacturer's manual. Briefly, single cell suspensions from spleen were generated by collagenase D/DNase I digestion as above mentioned. Then, cocktail of biotin-conjugated antibodies against non-dendritic cells followed by anti-biotin magnetic microbeads were added to the cell suspensions. Dendritic cells were separated from bead labelled non-dendritic cells using LS column. Dendritic cells freshly isolated either from WT mice or KO animals suspended in 200 μl Hanks' Balanced Salt Solution (HBSS) were injected intravenously (tail vein) into the naïve male Mrgpra1 knockout mice (2×10^6 cells/mouse) one day before starting daily LTG (50 mg kg^−1 body weight) administration."}, "[4]": {"biological_target": "MRGPRX4 (Homo sapiens, UniProt Q96LA9)", "sequence (Q96LA9 whole entry)": "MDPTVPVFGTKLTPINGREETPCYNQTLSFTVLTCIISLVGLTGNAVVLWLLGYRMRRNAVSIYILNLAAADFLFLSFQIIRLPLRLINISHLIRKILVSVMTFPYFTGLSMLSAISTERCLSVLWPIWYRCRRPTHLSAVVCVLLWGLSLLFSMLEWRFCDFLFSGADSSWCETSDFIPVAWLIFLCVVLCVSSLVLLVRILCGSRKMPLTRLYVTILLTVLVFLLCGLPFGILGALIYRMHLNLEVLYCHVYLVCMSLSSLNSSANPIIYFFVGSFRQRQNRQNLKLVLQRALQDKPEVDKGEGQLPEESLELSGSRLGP", "experiment": "Cell membrane chromatography, MRGPRX4/CMC column", "assay_type": "binding", "set-up": "expressed in transfected cells; whole cells or crude membrane fraction", "description": "CMC analysis was performed with a Shimadzu LC-2010A apparatus that consisted of pumps, degasser, autosampler, column oven, and a diode-array detector (Shimadzu, Kyoto, Japan). The data were acquired by the Lab-solution program (Shimadzu). The mobile phase consisted of phosphate-buffered saline (PBS; 5 mM, pH 7.4) and was delivered at a flow rate of 0.2 ml/min. The stock solutions (100 μM) of lamotrigine were prepared by separately dissolving the standard drugs in methanol. Standard solutions at various concentrations were prepared by diluting the stock solutions with the mobile phase. The MRGPRX2/CMC and MRGPRX4/CMC column was prepared as follows. Briefly, MRGPRX4-expressed HEK293 cells (1×10^8) were harvested and centrifuged (1000 g, 10 min, at 4° C.). Cells were washed with physiological saline (pH=7.4) by centrifugation at 1000 g for 10 min at 4° C. […] KD value of lamotrigine was determined by means of the MRGPRX4/CMC system as follows. […] This mobile phase with different concentrations of each compound was separately pumped through the MRGPRX4/CMC column at a flow rate of 0.2 ml min^−1 under the gradient program and the breakthrough curves of the compound with different concentrations were recorded. […] Moreover, KD could be determined by calculating the ratio of the intercept to the slope, and [R]s was obtained from the inverse of the intercept."}},
  "data": [
    {"compound": "Nc1nnc(-c2cccc(Cl)c2Cl)c(N)n1", "note": "[LTG, Lamotrigine]", "values": [
      {"measurement": "mortality rate", "setting": "[1]; LTG 50 mg kg−1 oral daily, by day 14, WT 129S1/SvImJ mice", "value": 60, "unit": "%"},
      {"measurement": "TUNEL-positive dead epithelial cells in paw", "setting": "[1]; day 9, HET mice", "value": "45.99±1.84", "unit": "%"},
      {"measurement": "TUNEL-positive dead epithelial cells in paw", "setting": "[1]; day 9, KO mice", "value": "6.10±1.63", "unit": "%"},
      {"measurement": "TUNEL-positive dead epithelial cells in paw", "setting": "[1]; day 9, WT mice", "value": "48.74±5.94", "unit": "%"},
      {"measurement": "survival", "setting": "[1]; day 14 of LTG treatment, KO group", "value": "no mouse died"},
      {"measurement": "mice survived", "setting": "[1]; day 14 of LTG treatment, WT and HET groups", "value": 30, "unit": "%"},
      {"measurement": "cells responding (Ca2+ imaging)", "setting": "[2]", "value": "approximately 5%"},
      {"measurement": "animals developing SJS-like eye manifestation", "setting": "[3]", "value": 64, "unit": "%"},
      {"measurement": "Retention time on MRGPRX4/CMC column", "setting": "[4]; affinity chromatography elution profile", "value": 16.7, "unit": "min"},
      {"measurement": "Kd", "setting": "[4]; regression 1/[LR]s versus 1/[L]m, n=5, read-out: KD (MRGPRX4/CMC breakthrough curves)", "value": 417, "unit": "nM"}
    ]}
  ]
}
